US20250002488A1, “Glioblastoma Multiforme Treatments” (Brown University, priority 2021, published 2025)

Experiments:
GSCs [1] = assay: two-week limiting dilution assay (LDA), self-renewal / neuro-sphere formation; format: cell-based
Source text: A graph using an online algorism to score and assess the self-renew ability of GSCs treated with DMSO and HDAC class IIa inhibitor respectively (FIGS. 6B and 6D).
To validate whether HDAC-7 inhibition would present a phenotype change in primary GSCs, its effect on modifying the self-renewal of GSCs was examined, and since there is no small molecule drug currently available as a selective HDAC-7 inhibitor, the class IIa HDAC inhibitor, TMP269, that inhibits HDAC-4,5,7,9, was used. The two-week limiting dilution assay “LDA” that tests the frequency of self-renewing cells within a population was applied. […] Moreover, the same significant result was observed when testing GSCs from different genotypes (FIGS. 6A-6D).

GSCs [2] = assay: cell viability assay by MTS; format: cell-based; details: increasing doses, 72 hrs
Description: Dose response curve for GSCs treated with Pan HDAC inhibitors TSA (Trichostatin A), SAHA (Vorinostat) versus the HDAC class IIa inhibitor (TMP269). Cell viability assay was determined by MTS after the treatment with increasing doses of each corresponding drug at time point 72 hrs with P-value <0.0001.
HDAC-7 has been crystalized, and like other members of class I, II, and IV, HDAC-7 binds to the substrates through a zinc mediated charge relay system. Class IIa HDAC has another specific zinc-binding motif adjacent to the active site, which directs the recognition and protein-protein interaction. However, there is remarkable structural diversity in HDAC-7 found in loop regions around the active site entrance that poses a challenge to generation of inhibitors.

Row | Structure (SMILES) | neuro-sphere formation of GSCs (GSCs [1]; 2-week limiting dilution assay, versus DMSO control) | self-renewal of GSCs (ability to form neuro-spheres, algorithmic scoring) (GSCs [1]; two-week LDA, versus DMSO-treated control cells, GSCs from different genotypes) | GSC cell viability (GSCs [2])
1 | O=C(NCC1(c2nc(-c3ccccc3)cs2)CCOCC1)c1cccc(-c2noc(C(F)(F)F)n2)c1 [TMP269] | unable to form neuro-spheres | significant decrease | decreases the GSCs' viability
2 | O=C(CCCCCCC(=O)Nc1ccccc1)NO [Vorinostat] |  |  | inhibitory trend
